Results from ChEMBL document CHEMBL1201862, “PubChem BioAssay data set” (2004).
Where a name gives a salt, the structure may show the parent alone. Active and inactive are the calls of the source.

Experiments:
[1] = target: Sphingosine 1-phosphate receptor 2 (Homo sapiens, UniProt O95136); test: Dose Response Cell Based Assay for Agonists of the S1P2 Receptor. [Related pubchem assays: 729, 736, 843 ]; assay type: functional
Cytochrome P450 2C19 = Cytochrome P450 2C19 (Homo sapiens, UniProt P33261); test: Cytochrome panel assay with activity outcomes. Panel member name: p450-cyp2c19 Compounds with AC50 equal or less than 10 uM are considered active; assay type: functional; settings: read-out: AC50
Cytochrome P450 1A2 = target: T1, Cytochrome P450 1A2 (Homo sapiens, UniProt P05177);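 further: PubChem cytochrome P450 panel assay, CYP1A2 panel member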
T1 sequence (P05177 whole entry): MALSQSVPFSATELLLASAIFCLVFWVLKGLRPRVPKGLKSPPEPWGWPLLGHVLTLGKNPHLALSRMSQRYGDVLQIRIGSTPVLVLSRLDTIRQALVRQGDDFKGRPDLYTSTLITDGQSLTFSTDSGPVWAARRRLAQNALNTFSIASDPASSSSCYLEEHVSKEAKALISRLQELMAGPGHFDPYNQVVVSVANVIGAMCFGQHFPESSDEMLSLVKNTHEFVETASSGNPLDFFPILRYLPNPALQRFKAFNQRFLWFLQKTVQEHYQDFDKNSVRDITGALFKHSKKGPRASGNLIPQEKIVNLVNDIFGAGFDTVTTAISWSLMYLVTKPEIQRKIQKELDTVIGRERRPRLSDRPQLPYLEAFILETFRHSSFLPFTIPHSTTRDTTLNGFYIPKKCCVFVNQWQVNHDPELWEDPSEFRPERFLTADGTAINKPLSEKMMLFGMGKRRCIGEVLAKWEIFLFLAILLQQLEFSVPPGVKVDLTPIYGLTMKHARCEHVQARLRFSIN

[2] = Late stage results for the probe development effort to identify inhibitors of Plasmodium falciparum gametocytes: Luminescence-based cell-based high throughput dose response assay to identify inhibitors of viability of late stage Plasmodium falciparum gametocytes.; assay type: functional
[3] = viability inhibitors of stage V gametocytes – luminescence, dose response (AID 1117278); assay type: functional, cell-based;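 further: gametocytes exposed to compound for 24 hours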
[4] = viability loss in human Jurkat cells – cell-based, luminescence, cytotoxicity control for P. falciparum gametocyte viability project, dose response (AID 1117277); assay type: functional;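 further: potency reflects loss of cellular ATP meaning fewer viable cells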
[5] = target: T2, Dual specificity protein phosphatase 6 (Rattus norvegicus, UniProt Q64346); test: inhibition of rat DUSP6 enzyme activity – biochemical, in vitro, primary screen (AID 425)
T2 sequence (Q64346 whole entry): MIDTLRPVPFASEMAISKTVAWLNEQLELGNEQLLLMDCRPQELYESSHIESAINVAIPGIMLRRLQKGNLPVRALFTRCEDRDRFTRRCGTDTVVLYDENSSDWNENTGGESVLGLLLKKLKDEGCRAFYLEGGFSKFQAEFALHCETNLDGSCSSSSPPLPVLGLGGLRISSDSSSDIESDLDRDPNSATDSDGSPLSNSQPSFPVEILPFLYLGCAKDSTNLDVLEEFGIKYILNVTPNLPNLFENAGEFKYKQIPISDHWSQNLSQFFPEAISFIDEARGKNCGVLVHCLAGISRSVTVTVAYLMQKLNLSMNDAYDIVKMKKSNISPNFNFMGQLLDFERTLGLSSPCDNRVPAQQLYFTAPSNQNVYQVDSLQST

[6] = target: T3, Small ubiquitin-related modifier 1 (Homo sapiens, UniProt P63165); test: SUMO1 protein interaction blockers, potency – biochemical, fluorescence polarization, uHTS hits, dose response (AID 624382); assay type: functional; settings: read-out: IC50_Mean
[7] = target: T3, Small ubiquitin-related modifier 1; test: SUMO1 protein-protein binding blockers, potency – biochemical, FRET, dose response (AID 624383); assay type: functional; settings: read-out: IC50_Mean
Caspase-6 = Caspase-6 (Homo sapiens, UniProt P55212); test: inhibition of CASP6 peptide cleavage – biochemical, VEID-R110 fluorescence, cherry-pick, dose response (AID 720632)
[8] = target: E3 ubiquitin-protein ligase UHRF1 (Homo sapiens, UniProt Q96T88); test: Counterscreen for inhibitors of 5-meCpG-binding domain protein 2 (MBD2): TRFRET-based biochemical high throughput dose response assay to identify inhibitors of binding of ubiquitin-like with PHD and ring finger domains 1 (UHRF1) to methylated oligonucleotide.
[9] = target: T4, Histone-lysine N-methyltransferase NSD2 (Homo sapiens, UniProt O96028); assay type: biochemical
T4 sequence (O96028 whole entry): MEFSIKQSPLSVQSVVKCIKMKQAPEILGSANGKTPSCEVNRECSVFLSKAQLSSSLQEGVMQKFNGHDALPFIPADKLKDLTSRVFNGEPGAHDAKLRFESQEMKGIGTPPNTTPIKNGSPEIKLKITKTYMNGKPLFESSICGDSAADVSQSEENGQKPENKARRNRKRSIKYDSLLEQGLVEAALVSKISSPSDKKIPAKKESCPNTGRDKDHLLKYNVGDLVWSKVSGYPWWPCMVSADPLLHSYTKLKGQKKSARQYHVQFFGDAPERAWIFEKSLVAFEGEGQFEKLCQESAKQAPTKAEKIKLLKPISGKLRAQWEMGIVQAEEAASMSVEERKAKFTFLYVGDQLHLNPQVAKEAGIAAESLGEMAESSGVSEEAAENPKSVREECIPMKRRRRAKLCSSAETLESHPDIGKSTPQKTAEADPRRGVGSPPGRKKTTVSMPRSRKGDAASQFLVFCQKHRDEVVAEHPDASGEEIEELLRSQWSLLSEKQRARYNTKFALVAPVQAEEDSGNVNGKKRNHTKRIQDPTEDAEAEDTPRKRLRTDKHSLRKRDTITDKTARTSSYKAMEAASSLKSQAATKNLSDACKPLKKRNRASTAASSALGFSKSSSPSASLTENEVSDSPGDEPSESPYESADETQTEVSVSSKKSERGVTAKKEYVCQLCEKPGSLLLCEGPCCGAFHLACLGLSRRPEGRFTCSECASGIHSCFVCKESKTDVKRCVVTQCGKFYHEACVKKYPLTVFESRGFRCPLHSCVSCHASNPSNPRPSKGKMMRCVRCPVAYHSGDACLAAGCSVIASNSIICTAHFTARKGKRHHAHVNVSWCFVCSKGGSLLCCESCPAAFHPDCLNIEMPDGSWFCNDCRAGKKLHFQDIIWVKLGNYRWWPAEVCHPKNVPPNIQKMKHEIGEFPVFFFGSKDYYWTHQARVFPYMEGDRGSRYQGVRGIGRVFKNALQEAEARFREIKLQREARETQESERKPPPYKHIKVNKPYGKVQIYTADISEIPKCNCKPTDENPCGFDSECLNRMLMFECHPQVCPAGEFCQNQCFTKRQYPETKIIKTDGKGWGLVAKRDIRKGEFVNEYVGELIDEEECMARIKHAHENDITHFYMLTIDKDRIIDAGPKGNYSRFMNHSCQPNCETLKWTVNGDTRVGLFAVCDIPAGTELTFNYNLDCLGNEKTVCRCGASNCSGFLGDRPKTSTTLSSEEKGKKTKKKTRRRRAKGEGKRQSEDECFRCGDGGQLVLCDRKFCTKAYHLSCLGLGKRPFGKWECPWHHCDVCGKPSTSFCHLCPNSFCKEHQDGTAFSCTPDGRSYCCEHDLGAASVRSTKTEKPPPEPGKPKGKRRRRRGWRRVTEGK

[10] = target: Glutathione-S-transferase (Schistosoma japonicum, UniProt Q26513); test: GST-antibody interaction or FRET quenching – biochemical, TR-FRET, artefact control for Vif-APOBEC3G degradation inhibitor project, dose response (AID 1117362); assay type: functional
[11] = target: Metabotropic glutamate receptor 7 (Homo sapiens, UniProt Q14831); test: potentiation of glutamate EC20 at mGlu7 – cell-based, calcium mobilization, Galpha15, dose response (AID 743384); assay type: functional
[12] = Dd2 parasite growth inhibition in erythrocytes – SYBR Green, dry powder samples, set 4, dose response (AID 1159572); assay type: functional, cell-based
[13] = target: RNA-editing ligase 1, mitochondrial (Trypanosoma brucei brucei, UniProt P86926); test: inhibition of trypanosome RNA editing ligase – biochemical, fluorescence, Trypanosoma brucei, dose response (AID 1117295); assay type: functional
Heat shock protein HSP90 = Heat shock protein HSP90 (Homo sapiens, UniProt P07900+P08238); test: Hsp90 blockade concentration-response – dose response (AID 712); assay type: functional
[14] = glucagon-like peptide-1 release potency in STC-1, concentration-response, half-maximal inhibitory concentration in the STC-1 line (AID 1117345); assay type: functional, cell-based
[15] = Potency on glucagon-like peptide 1 release, dose-response in NCI-H716 cell line, half maximal inhibitory concentration (AID 1117344); assay type: functional, cell-based
[16] = target: T5, Aryl hydrocarbon receptor (Homo sapiens, UniProt P35869); settings: Potency;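 further: confirmatory quantitative high-throughput screen measuring activation of the AhR signaling pathway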
T5 sequence (P35869 whole entry): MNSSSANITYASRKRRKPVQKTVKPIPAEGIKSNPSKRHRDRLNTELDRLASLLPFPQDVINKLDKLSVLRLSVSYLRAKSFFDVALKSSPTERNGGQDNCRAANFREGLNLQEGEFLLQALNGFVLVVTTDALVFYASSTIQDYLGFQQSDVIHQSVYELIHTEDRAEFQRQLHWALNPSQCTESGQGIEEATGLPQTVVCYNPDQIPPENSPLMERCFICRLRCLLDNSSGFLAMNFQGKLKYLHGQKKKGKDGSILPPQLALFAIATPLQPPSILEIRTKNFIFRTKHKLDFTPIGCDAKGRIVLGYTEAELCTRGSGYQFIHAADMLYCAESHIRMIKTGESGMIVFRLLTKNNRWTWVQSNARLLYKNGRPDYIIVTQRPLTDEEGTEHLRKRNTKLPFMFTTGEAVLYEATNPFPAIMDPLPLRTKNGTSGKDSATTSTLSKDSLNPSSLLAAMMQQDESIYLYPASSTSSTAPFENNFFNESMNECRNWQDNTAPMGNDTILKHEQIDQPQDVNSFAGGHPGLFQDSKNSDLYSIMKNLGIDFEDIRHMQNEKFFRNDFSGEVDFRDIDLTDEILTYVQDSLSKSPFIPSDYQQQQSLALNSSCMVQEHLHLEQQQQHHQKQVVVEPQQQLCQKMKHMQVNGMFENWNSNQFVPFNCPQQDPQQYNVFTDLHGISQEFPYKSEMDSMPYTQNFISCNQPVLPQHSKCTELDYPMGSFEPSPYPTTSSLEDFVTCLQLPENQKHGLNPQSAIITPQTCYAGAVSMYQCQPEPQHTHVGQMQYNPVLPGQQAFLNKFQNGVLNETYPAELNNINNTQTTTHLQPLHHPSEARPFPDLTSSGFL

[17] = CellTiter-Glo luminescence survival assay, SW480 colon tumor line, concentration-response curve, half-maximal inhibitory concentration (AID 1117338); assay type: functional
[18] = RKO cell viability reduction, dose response, CellTiter-Glo luminescence (AID 1117322); assay type: functional
[19] = cytotoxicity toward HCT116 cells – cell-based, CellTiter-Glo luminescence, IC50, dose response (AID 1117332); assay type: functional; settings: HCT-116
[20] = SNU-C1 cell viability reduction, dose response, CellTiter-Glo luminescence (AID 1117323); assay type: functional, cell-based
[21] = cytotoxicity toward Colo320 cells – cell-based, CellTiter-Glo luminescence, IC50, dose response (AID 1117334); assay type: functional; settings: COLO 320
[22] = cytotoxicity toward HT-29 cells – cell-based, CellTiter-Glo luminescence, IC50, dose response (AID 1117330); assay type: functional
[23] = Reduced DLD-1 viability, concentration-response, CellTiter-Glo luminescence (AID 1117352); assay type: functional
[24] = HCT116 cell viability decrease, GSK3B pretreatment – CellTiter-Glo, IC50, dose response (AID 1117339); assay type: functional; settings: HCT-116
[25] = IC50 of insulin release inhibition, rat insulinoma INS-1E line, 5 mM glucose, cell-based (AID 1117331); assay type: functional

T3 sequence (P63165 whole entry): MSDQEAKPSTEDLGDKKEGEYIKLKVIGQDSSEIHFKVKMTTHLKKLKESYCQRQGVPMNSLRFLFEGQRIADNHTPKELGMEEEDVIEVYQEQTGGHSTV
Cytochrome P450 2C19, sequence (P33261 whole entry): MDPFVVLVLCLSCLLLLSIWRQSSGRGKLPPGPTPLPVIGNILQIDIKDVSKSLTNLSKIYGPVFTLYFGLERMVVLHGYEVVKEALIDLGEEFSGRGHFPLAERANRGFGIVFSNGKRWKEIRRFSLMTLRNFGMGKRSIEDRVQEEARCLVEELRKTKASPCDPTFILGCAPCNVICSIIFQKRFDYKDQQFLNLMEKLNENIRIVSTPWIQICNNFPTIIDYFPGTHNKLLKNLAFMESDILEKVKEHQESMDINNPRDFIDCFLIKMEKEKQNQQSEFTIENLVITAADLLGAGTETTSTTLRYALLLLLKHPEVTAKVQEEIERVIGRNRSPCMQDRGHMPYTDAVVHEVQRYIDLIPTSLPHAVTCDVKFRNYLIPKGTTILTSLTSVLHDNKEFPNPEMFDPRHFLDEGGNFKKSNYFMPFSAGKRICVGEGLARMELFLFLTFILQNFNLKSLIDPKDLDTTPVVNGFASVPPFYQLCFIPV
Metabotropic glutamate receptor 7, sequence (Q14831 whole entry): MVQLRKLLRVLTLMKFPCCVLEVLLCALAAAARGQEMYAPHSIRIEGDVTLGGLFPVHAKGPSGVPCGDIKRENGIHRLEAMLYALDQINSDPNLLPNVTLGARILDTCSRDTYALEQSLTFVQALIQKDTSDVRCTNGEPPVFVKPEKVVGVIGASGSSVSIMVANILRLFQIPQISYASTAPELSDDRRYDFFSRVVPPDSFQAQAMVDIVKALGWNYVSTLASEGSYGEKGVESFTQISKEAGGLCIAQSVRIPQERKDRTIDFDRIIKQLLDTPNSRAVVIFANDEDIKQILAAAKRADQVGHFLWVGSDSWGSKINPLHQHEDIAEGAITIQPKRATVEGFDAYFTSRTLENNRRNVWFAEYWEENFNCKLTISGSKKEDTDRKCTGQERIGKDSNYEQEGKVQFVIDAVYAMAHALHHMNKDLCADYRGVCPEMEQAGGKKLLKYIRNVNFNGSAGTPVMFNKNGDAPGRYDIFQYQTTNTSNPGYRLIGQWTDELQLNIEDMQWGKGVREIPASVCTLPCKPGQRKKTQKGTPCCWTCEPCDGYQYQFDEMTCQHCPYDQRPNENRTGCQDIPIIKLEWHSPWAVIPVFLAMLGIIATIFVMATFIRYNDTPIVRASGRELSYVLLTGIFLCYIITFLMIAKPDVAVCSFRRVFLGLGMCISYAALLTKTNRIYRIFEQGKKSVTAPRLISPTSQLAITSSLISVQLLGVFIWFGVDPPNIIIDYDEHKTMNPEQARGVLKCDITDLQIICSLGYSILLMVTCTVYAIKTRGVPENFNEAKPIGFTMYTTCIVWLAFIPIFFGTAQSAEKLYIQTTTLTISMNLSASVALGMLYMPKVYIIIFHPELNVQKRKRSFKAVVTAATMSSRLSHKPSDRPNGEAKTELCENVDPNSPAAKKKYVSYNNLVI
Caspase-6, sequence (P55212 24-179 limits assumed): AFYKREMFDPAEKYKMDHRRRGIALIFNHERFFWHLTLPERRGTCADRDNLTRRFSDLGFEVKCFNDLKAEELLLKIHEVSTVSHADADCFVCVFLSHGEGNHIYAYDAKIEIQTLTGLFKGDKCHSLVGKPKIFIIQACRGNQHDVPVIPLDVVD
Caspase-6, sequence (P55212 194-293 limits assumed): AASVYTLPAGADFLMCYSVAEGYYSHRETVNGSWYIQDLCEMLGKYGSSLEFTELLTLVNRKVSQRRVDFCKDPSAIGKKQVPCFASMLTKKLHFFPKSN
Sphingosine 1-phosphate receptor 2, sequence (O95136 whole entry): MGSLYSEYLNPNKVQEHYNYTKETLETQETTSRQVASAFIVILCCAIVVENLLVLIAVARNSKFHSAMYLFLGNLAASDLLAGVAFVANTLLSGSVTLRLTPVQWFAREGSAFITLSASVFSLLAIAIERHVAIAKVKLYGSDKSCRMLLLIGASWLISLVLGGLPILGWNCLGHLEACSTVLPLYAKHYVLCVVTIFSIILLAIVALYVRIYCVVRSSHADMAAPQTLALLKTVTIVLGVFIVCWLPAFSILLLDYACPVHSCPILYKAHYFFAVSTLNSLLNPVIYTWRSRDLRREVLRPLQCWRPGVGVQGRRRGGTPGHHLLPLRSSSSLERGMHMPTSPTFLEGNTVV
RNA-editing ligase 1, mitochondrial, sequence (P86926 whole entry): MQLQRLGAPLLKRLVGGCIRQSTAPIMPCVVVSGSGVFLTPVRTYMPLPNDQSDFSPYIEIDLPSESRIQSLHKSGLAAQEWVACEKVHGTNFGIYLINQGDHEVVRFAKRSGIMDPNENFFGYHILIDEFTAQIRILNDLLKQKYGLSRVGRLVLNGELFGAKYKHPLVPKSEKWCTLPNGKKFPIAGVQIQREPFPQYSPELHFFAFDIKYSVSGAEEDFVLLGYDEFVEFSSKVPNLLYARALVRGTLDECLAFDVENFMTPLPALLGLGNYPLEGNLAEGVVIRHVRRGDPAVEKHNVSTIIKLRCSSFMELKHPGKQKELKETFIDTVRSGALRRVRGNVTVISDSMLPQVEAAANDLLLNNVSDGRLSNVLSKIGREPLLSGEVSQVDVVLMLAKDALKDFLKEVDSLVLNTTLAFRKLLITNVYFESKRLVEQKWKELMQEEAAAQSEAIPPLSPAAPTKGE
Glutathione-S-transferase, sequence (Q26513 whole entry): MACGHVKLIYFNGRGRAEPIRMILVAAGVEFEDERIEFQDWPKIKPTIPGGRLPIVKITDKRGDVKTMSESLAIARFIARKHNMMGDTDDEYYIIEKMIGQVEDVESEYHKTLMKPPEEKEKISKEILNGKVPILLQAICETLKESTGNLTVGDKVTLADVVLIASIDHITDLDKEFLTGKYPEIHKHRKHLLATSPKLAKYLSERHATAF
E3 ubiquitin-protein ligase UHRF1, sequence (Q96T88 whole entry, the tested form may be a part): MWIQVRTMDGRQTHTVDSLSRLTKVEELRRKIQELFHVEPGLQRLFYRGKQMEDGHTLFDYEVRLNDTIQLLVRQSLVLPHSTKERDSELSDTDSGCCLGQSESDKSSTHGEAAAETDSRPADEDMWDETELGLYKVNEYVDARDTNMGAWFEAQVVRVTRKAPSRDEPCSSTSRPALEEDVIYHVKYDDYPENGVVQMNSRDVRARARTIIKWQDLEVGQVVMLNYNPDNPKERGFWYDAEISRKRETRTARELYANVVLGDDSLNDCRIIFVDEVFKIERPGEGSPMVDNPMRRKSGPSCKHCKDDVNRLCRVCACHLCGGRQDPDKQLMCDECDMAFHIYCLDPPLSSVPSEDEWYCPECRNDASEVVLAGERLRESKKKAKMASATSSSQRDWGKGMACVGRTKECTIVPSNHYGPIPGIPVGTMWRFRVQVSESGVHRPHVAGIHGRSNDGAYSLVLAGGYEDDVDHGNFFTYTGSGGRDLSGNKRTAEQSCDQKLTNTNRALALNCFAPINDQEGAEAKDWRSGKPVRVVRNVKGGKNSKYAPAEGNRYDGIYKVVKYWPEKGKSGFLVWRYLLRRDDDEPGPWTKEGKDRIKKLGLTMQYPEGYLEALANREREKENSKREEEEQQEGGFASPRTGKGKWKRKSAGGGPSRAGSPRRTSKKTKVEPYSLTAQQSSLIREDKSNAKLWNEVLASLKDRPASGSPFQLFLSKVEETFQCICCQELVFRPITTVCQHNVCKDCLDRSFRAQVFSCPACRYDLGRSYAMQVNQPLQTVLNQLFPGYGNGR

## O=c1c(-c2nc3ccccc3s2)cccn1Cc1ccc(Cl)cc1
[1]
  EC50: 2.89 µM (active)
Cytochrome P450 2C19
  AC50: 1.12 µM (inconclusive)
Cytochrome P450 1A2
  AC50: 1.41 µM (inconclusive)

## O=C(Nc1nccs1)c1cn(-c2ccccc2)nc1-c1ccncc1
[2]
  IC50: > 37.2 µM (inactive)
[3]
  IC50: 9.12 µM (active)
[4]
  IC50: > 83.3 µM (inactive)

## CCCCn1c(NC(=O)c2ccccc2)c(C#N)c2nc3ccccc3nc21
[5]
  IC50: > 100 µM (not active)
[6]
  IC50: > 66.6 µM (inactive)
[7]
  IC50: 17.4 µM (active)
Caspase-6
  AC50: 47.4 µM (active)
[8]
  IC50: > 43.8 µM (inactive)
[9]
  AC50: 2.61 µM (active)

## Cc1nc2c(Cl)cccc2c(O)c1CN1CCCC1
[10]
  IC50: > 100 µM (active)

## COC(=O)c1ccc(-n2c(C)cc(C(=O)COc3ccc(OC(C)=O)cc3)c2C)cc1
[11]
  EC50: 10 µM (active)

## COc1ccc2c3c([nH]c2c1)[C@H](CO)N(C(C)=O)CC31CCN(Cc2ccccc2Cl)CC1
[12]
  AC50: 17.1 µM (active)

## COC(=O)C1=C(C)N(Cc2ccccc2C(F)(F)F)C(NCc2ccc3c(c2)OCO3)=NC1c1cccc(F)c1 (stereo not given)
[13]
  IC50: > 96.6 µM (inactive)

## CCn1nc(-c2cccs2)nc2c(=O)n(C)c(=O)nc1-2
Heat shock protein HSP90
  IC50: 5 µM
[5]
  IC50: 1.98 µM (active)

## CC(C)(Oc1ccc(C2CC2(Cl)Cl)cc1)C(=O)O (stereo not given) [CIPROFIBRATE]
[14]
  IC50: > 40 µM (inactive)
[15]
  IC50: > 40 µM (inactive)
[16]
  AC50: 70.8 µM (inconclusive)

## O=C(Nc1ccc(Cl)cc1)Nc1ccc(Cl)c(C(F)(F)F)c1 [CLOFLUCARBAN]
[17]
  IC50: 0.009 µM (active)
[18]
  IC50: 0.003 µM (active)
[19]
  IC50: 0.003 µM (active)
[20]
  IC50: 0.009 µM (active)
[21]
  IC50: 0.003 µM (active)
[22]
  IC50: 0.001 µM (active)
[23]
  IC50: 0.027 µM (active)
[24]
  IC50: 0.003 µM (active)

## CCN(CC)C(C)CN1c2ccccc2Sc2ccccc21 (stereo not given) [ETHOPROPAZINE HYDROCHLORIDE]
[25]
  IC50: > 33.3 µM (inactive)
